Measured values from patent US9226929B2, “Pharmaceutically active disubstituted triazine derivatives” (Bayer Intellectual Property GMBH, priority 2011, dated 2016).

How the values were obtained:
CDK9/Cyclin K = biological target: T1, CDK9/Cyclin K (Homo sapiens, UniProt P50750); assay: LanthaScreen Eu Kinase Binding Assay, CDK9/Cyclin K; details: tracer 236, read-out: CDK9/Cyclin K (activity range), Kd
T1 construct: His; purchased Invitrogen
How it was run: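 TR-FRET displacement of an Alexa Fluor 647 active-site tracer, detected with a Eu anti-GST antibody, over an 8-point 1:3 compound series. Tracer was set at its Kd (30 nM for CDK2/Cyclin A, CDK7 and CDK9/Cyclin T1; 35 nM for CDK9/Cyclin K). Read after 1 h at room temperature; Kd was fitted from sigmoidal curves.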

CDK2/CyclinA [1] = biological target: T2, CDK2/CyclinA (Homo sapiens, UniProt P24941); assay: LanthaScreen Eu Kinase Binding Assay, CDK2; details: tracer 236, read-out: CDK2 (activity range), Kd
T2 construct: GST; purchased Proqinase
Procedure: This protocol describes how the LanthaScreen Eu Kinase Binding Assay was performed to determine dissociation constants (Kd) of compounds of general formula (I) and CDK/Cyclin complexes. The principle behind this assay is based upon the binding and displacement of an Alexa Fluor 647-labeled tracer, which binds to the active site of kinases. Binding of the tracer to the kinase is detected using a Eu-labeled antibody. Simultaneous binding of both the tracer and antibody to the kinase gives rise to a FRET-signal. Binding of an inhibitor to the kinase competes for binding with the tracer, resulting in a loss of FRET.
The compounds of general formula (I) summarized in Table 1 were diluted from a 10 mM DMSO stock solution 1:10 in a total volume of 15 μL DMSO. This compound predilution was then serial diluted 1:3 over 8 steps in DMSO and briefly spun down. Each compound solution was now diluted 1:33.33 in kinase buffer (HEPES: 20 mM, pH: 8.0; MgCl2: 10 mM; DTT: 1 mM; Brij-35: 0,01%), mixed thoroughly and spun down. For every sample, 5 μL of the diluted compound were mixed with 5 μL tracer working solution (e.g. 60 nM tracer 236 in kinase buffer for CDK2/Cyclin A) and 5 μL CDK/Cyclin/Anti-GST-AB-working solution (e.g. 15 nM CDK2/Cyclin A, 1:250 dilution of Anti-GST-AB in kinase buffer) in a well of a small volume 384 well plate (Corning Incorporated, Corning, N.Y., USA; order no. 3673). The tracer concentration was adjusted to its dissociation constant (Kd) for the CDK/Cyclin, which was 30 nM for CDK2/Cyclin A, CDK7/Cyclin H and CDK9/Cyclin T1, 20 nM for CDK8/Cyclin C, and 35 nM for CDK9/Cyclin K. For negative controls, in each well 5 μL of DMSO working solution (3% DMSO diluted in kinase buffer) was mixed with 5 μL Anti-GST-AB working solution (e.g. 1:250 dilution of Anti-GST-AB in kinase buffer for CDK2/Cyclin A) and 5 μL Tracer working solution (e.g. 60 nM Tracer 236 in kinase buffer for CDK2/Cyclin A). For positive controls, in each well 5 μL of DMSO working solution (3% DMSO diluted in kinase buffer) was mixed with 5 μL CDK/Cyclin/Anti-GST-AB-working solution: (e.g. 15 nM CDK2/Cyclin A, 1:250 dilution of Anti-GST-AB in kinase buffer) and 5 μL Tracer working solution (e.g. 60 nM Tracer 236 in kinase buffer for CDK2/Cyclin A). Positive and negative controls were calculated from at least 8 different sample wells. The 384 well plates were mixed in a Teleshaker plate mixer (Beckman Coulter, Brea, Calif., USA) at 2000 rpm for 40 sec, and incubated for 1 h at room temperature before reading. The FRET signal was measured at 340 nm excitation, 665 nm and 615 nm emission (for the kinase tracer and LanthaScreen Eu-AB, respectively) with an Envision spectrophotometer (Perkin Elmer, Waltham, Mass., USA) with […]. Kd values were determined from the sigmoidal dose response curves with the software Quattro Workflow (Quattro GmbH, Munich, Germany).

CDK2/CyclinA [2] = biological target: T2, CDK2/CyclinA; assay: Lance Ultra KinaSelect Assay, CDK2; format: biochemical; details: ATP 3 μM; read-out: CDK2 LANCE assay (activity range), IC50
Procedure: (§1) 2. Measurement of half maximal inhibitory concentration to CDKs This protocol describes how the Lance Ultra KinaSelect Assay was performed to determine half maximal inhibitory concentration (1050) of compounds of general formula (I) and CDK/Cyclin complexes. The principle behind this enzymatic assay is based upon the phosphorylation of the ULight-Peptide Substrat. It is detected by using a specific
(§2) EU-labeled anti-phospho peptide antibody. The binding of the Eu-labeled anti-phospho peptide antibody to the phosphorylated ULight labeled peptide gives rise to a FRET-signal. Binding of an inhibitor to the kinase prevents phosphorylation of the ULight-MBP Substrat, resulting in a loss of FRET.
(§3) The compounds of general formula (I) summarized in Table 5 were diluted from a 10 mM DMSO stock solution 1:10 in a total volume of 15 μL DMSO. This compound predilution was then serial diluted 1:3 over 8 steps in DMSO and briefly spun down. Each compound solution was now diluted 1:20 in Enzymatic Buffer (HEPES: 50 mM, pH: 7.5; MgCl2: 10 mM; EGTA: 1 mM; DTT: 2 mM; Tween-20: 0.01%), mixed thoroughly and spun down. For every sample, 2 μL of the diluted compound were mixed with 6 μL CDK/Cyclin/Substrat solution and 2 μL ATP solution in a well of a small volume 384 well plate (Corning Incorporated, Corning, N.Y., USA; order no. 3673). The CDK/Cyclin was diluted to the appropriate concentration (see Table 3) and the ATP concentration was adjusted to its […] for the CDK/Cyclin, which was 3 μM for CDK2/Cyclin A, 20 μM for CDK1/Cyclin B1, 25 μM for CDK7/Cyclin H and CDK9/Cyclin T1, 55 μM for CDK6/Cyclin D3, 90 μM for CDK4/Cyclin D1 and 125 μM for CDK9/Cyclin K. For negative controls, in each well 2 μL of DMSO solution (1% final DMSO assay concentration) was mixed with 6 μL substrate solution (50 nM ULight MBP final assay concentration) and 2 μL ATP solution (appropriate final concentration see Table 3). For positive controls, in each well 2 μL of DMSO solution (1% final DMSO assay concentration) was mixed with 6 μL CDK/Cyclin/Substrat (appropriate final concentration see Table 3) and 2 μL Tracer ATP solution (appropriate final concentration see Table 3). Positive and negative controls were calculated from at least 8 different sample wells. The 384 well plates were mixed in a Teleshaker plate mixer (Beckman Coulter, Brea, Calif., USA) at 2000 rpm for 40 sec, and incubated for 1 h at room temperature. Before reading, 10 μL the detection buffer (Lance Detection Buffer 1×; EDTA: […]; Eu-Anti-P-MBP: see Table 3) was added. The FRET signal was measured at 340 nm excitation, 665 nm and 615 nm emission (for the kinase tracer and LanthaScreen Eu-AB, respectively) with an Envision spectrophotometer (Perkin Elmer, Waltham, Mass., USA) with 50 μs delay and 300 μs integration time. IC50 values were determined from the sigmoidal dose response curves with the software Quattro Workflow (Quattro GmbH, Munich, Germany).

CDK4/CyclinD1 = biological target: T3, CDK4/CyclinD1 (Homo sapiens, UniProt P11802); assay: Lance Ultra KinaSelect Assay, CDK4; format: biochemical; details: ATP 90 μM; read-out: CDK4 LANCE assay (activity range), IC50
T3 construct: purchased Invitrogen
T3 sequence (P11802 whole entry): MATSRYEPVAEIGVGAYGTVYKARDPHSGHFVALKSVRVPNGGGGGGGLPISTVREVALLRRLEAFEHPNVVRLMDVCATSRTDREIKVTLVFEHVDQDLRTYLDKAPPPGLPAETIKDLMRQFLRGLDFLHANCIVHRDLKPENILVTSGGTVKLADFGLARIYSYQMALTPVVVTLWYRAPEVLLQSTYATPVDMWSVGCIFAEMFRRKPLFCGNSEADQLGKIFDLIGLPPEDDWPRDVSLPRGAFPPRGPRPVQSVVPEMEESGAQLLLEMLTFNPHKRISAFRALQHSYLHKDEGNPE
T3 sequence (P24385 whole entry partner): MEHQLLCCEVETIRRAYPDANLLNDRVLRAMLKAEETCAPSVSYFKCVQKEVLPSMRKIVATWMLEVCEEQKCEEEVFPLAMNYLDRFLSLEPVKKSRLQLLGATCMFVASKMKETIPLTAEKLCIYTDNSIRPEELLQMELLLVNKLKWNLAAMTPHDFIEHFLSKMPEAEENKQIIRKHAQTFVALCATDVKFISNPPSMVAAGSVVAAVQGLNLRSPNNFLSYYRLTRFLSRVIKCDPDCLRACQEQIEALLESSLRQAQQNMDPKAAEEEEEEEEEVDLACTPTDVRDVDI
Procedure: as §1, §2, §3

CDK7/CyclinH/MAT1 = biological target: T4, CDK7/CyclinH/MAT1 (Homo sapiens, UniProt P50613); assay: Lance Ultra KinaSelect Assay, CDK7; format: biochemical; details: ATP 25 μM; read-out: CDK7 LANCE assay (activity range), IC50
T4 construct: His; purchased Carna Biosciences
T4 sequence (P50613 whole entry): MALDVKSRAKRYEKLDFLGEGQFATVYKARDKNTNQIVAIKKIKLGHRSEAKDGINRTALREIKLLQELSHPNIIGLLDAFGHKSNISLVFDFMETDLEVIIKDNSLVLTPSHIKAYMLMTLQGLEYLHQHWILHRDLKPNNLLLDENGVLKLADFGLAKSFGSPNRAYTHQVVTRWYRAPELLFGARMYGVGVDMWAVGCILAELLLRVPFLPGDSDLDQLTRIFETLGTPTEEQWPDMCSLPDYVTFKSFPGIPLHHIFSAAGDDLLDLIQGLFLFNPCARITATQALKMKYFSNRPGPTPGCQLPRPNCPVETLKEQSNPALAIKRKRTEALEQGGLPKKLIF
T4 sequence (P51946 whole entry partner): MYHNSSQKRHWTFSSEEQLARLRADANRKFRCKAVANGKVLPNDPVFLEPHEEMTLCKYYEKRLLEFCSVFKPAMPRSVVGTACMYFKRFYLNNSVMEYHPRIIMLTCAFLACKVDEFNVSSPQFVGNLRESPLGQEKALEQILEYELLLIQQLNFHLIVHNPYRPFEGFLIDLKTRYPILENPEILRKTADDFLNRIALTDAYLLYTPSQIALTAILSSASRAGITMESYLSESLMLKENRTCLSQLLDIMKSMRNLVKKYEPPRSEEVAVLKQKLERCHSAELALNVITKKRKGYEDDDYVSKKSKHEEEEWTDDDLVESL
T4 sequence (P51948 whole entry partner): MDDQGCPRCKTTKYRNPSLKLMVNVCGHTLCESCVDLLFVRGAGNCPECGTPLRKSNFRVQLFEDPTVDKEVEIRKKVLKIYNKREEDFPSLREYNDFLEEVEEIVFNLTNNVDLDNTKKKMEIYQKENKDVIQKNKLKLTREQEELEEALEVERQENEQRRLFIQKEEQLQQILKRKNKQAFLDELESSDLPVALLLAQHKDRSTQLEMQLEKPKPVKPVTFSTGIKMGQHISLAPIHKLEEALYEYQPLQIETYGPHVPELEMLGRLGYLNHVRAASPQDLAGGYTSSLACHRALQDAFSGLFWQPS
Procedure: as §1, §2, §3

T1 sequence (P50750 whole entry): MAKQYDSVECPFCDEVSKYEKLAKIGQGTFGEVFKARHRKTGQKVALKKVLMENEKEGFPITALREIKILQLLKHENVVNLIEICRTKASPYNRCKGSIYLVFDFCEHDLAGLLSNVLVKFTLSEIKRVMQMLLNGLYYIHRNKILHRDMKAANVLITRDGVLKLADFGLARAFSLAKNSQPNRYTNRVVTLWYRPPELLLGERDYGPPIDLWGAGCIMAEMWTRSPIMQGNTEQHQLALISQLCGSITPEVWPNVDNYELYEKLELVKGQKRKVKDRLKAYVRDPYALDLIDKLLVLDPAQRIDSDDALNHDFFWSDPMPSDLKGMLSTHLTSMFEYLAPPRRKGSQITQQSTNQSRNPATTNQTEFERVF
T1 sequence (O75909 1-357 isoform O75909-1 partner): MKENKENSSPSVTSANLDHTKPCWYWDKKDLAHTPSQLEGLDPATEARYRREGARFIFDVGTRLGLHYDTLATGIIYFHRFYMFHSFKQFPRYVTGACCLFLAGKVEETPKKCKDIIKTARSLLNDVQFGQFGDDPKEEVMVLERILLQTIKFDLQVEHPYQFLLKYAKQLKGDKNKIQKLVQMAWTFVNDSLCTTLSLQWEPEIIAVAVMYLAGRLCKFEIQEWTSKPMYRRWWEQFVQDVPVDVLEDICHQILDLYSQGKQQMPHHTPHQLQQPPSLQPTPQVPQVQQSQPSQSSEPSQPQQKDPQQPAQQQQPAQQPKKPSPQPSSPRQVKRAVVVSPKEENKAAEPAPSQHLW

| Compound | Kd (CDK9/Cyclin K) [nM] | Kd (CDK2/CyclinA [1]) [nM] | IC50 (CDK2/CyclinA [2]) [nM] | IC50 (CDK4/CyclinD1) [nM] | IC50 (CDK7/CyclinH/MAT1) [nM] |
| --- | --- | --- | --- | --- | --- |
| COC(=O)[C@H]1CCCN1c1ncnc(Nc2cccc(CS(N)(=O)=O)c2)n1 [Compound B21, (R)-Methyl 1-[4-((3-(Sulfamoylmethyl)phenyl)amino)-1,3,5-triazin-2-yl]pyrrolidine-2-carboxylate] | 100 to 1000 | 1000 to 10000 |  |  |  |
| COC[C@H]1CCCN1c1ncnc(Nc2cccc(CS(N)(=O)=O)c2)n1 [Compound B17, (R)-3-[(4-(2-(Methoxymethyl)pyrrolidin-1-yl)-1,3,5-triazin-2-yl)amino]benzenemethanesulfonamide] | 100 to 1000 | 1000 to 10000 | 1000 to 10000 | > 10000 | > 10000 |
| NS(=O)(=O)Cc1cccc(Nc2ncnc(N3CCCC3c3ccccc3)n2)c1 (racemic) [Compound B33, rac-3-[(4-(2-Phenylpyrrolidin-1-yl)-1,3,5-triazin-2-yl)amino]-benzenemethanesulfonamide] | < 100 |  | > 10000 | > 10000 | > 10000 |
| NS(=O)(=O)Cc1cccc(Nc2ncnc(N3CCCCC3)n2)c1 [Compound B1, 3-[(4-(Piperidin-1-yl)-1,3,5-triazin-2-yl)amino]benzenemethane sulfonamide] | 100 to 1000 | > 10000 | > 10000 | > 10000 | > 10000 |
| NS(=O)(=O)Cc1cccc(Nc2ncnc(N3CCCn4nccc43)n2)c1 [Compound B47, 3-[(4-(6,7-Dihydropyrazolo[1,5-a]pyrimidin-4(5H)-yl)-1,3,5-triazin-2-yl)amino]benzenemethanesulfonamide] | < 100 | < 100 | < 100 | 1000 to 10000 | 1000 to 10000 |

Other lines, results leading:

| Kd (CDK9/Cyclin K) [nM] | Kd (CDK2/CyclinA [1]) [nM] | IC50 (CDK2/CyclinA [2]) [nM] | IC50 (CDK4/CyclinD1) [nM] | IC50 (CDK7/CyclinH/MAT1) [nM] | Compound |
| --- | --- | --- | --- | --- | --- |
| < 100 | < 100 |  |  |  | NS(=O)(=O)Cc1cccc(Nc2ncnc(N3CCc4nc[nH]c4C3)n2)c1 [Compound B44, 3-[(4-(6,7-Dihydro-3H-imidazo[4,5-c]pyridin-5(4H)-yl)-1,3,5-triazin-2-yl)amino]benzenemethanesulfonamide] |
| < 100 | 100 to 1000 | 100 to 1000 | > 10000 | > 10000 | NS(=O)(=O)Cc1cccc(Nc2ncnc(N3CCc4ncccc4C3)n2)c1 [Compound B38, 3-[(4-(7,8-Dihydro-1,6-naphthyridin-6(5H)-yl)-1,3,5-triazin-2-yl)amino]-benzenemethanesulfonamide] |
| < 100 | 1000 to 10000 | 100 to 1000 | > 10000 | > 10000 | NS(=O)(=O)Cc1cccc(Nc2ncnc(N3Cc4cn[nH]c4C3)n2)c1 [Compound B51, 3-[(4-(Pyrrolo[3,4-c]pyrazol-5(1H,4H,6H)-yl)-1,3,5-triazin-2-yl)amino]-benzenemethanesulfonamide] |
|  | < 100 | < 100 |  | 1000 to 10000 | NS(=O)(=O)Cc1cccc(Nc2ncnc(N3CCc4ncsc4C3)n2)c1 [Compound B45, 3-[(4-(6,7-Dihydrothiazolo[5,4-c]pyridin-5(4H)-yl)-1,3,5-triazin-2-yl)amino]benzenemethanesulfonamide] |
